The test system of one data set is HBV pgRNA. The data set is described as follows: HBV pgRNA change from baseline after 4-week treatment course in chronically infected HBV patients. Format: in vivo, human. Conditions: 4 weeks. Here is the method:
FIG. 1: HBV pgRNA (log 10 copies/mL) changes from baseline after a 4 week anti-HBV treatment course of FXR agonist EYP001a or placebo in combination with interferon in chronically infected previously untreated HBV patients. PBO: placebo. peg-IFN: pegylated interferon alpha2a. 150 BID: 150 mg twice daily. 300 QD: 300 mg once daily. pgRNA: pregenomic ribonucleic acid.
(§1) HBV chronically infected patients (male (n=39) and female (n=34)) underwent a 4-week treatment course as either daily oral FXR agonist EYP001a monotherapy or placebo or entecavir (ETV) in Part A of the study (n=48) or in combination with interferon (n=23, weekly sub-cutaneous injections of pegylated IFNα2a, PEG-IFN) in Part B. Patient characteristics were: mean age of 39.7 years (range: 19-63); 6 of 73 were HBeAg-positive; 70% treatment naïve; mean baselines HBV DNA 4.2 (±1.5 SD) log 10 IU/mL, HBsAg 3.5 (±0.8 SD) log 10 IU/mL, and genotypes A (25), B (8), C (10), D (7) and E (4).

A further data set relates to HBcrAg. The data set is described as follows: HBcrAg change from baseline after 4-week treatment course in chronically infected HBV patients. Format: in vivo, human. As to conditions: 4 weeks.
Description: PBO: placebo. peg-IFN: pegylated interferon alpha2a. HBcrAg: hepatitis B core-related antigen.
as §1

The test system of another data set is HBsAg. Format: in vivo, human. Conditions: 400 mg QD EYP001, end of treatment day 29, p<0.05.
Description: as §1

In the next data set the test system is HBV replication. The data set is described as follows: Synergistic effect of combined treatment on HBV replication markers (pgRNA and HBcrAg) in patients. It counts as in vivo, human. Conditions: same dose, same period of 4 weeks, monotherapy.
Description: By “a synergistic effect” is intended to refer to an effect for decreasing the HBV replication which is more than the sum of the effects of each molecule alone. HBV replication can be assessed by determining surface HBV antigen (HBsAg), HBeAg, HBV core related antigen (HBcrAg), HBV DNA, HBV pre-genomic RNA, HBV pre-core RNA and/or HBV cccDNA. More particularly, the effect is observed on the pre-genomic RNA (HBV pgRNA) and/or on the hepatitis B core related antigen (HBcrAg).
as §1, with “(4). FXR engagement with all EYP001 doses led to decreases in C4 and increases in FGF19 (data not shown).” for “(4).”
At end of treatment on day 29, 400 mg QD EYP001 decrease the mean HBsAg by −0.1 log 10 IU/mL (p<0.05). […]

The target in another data set is T1, FXR (Homo sapiens, UniProt Q96RI1).
T1 construct: FXR engagement with all EYP001 doses led to decreases in C4 and increases in FGF19; from tissue; host or cells: endogenous FXR in the tissues of treated HBV patients (in vivo clinical study)
T1 sequence (Q96RI1 1-486): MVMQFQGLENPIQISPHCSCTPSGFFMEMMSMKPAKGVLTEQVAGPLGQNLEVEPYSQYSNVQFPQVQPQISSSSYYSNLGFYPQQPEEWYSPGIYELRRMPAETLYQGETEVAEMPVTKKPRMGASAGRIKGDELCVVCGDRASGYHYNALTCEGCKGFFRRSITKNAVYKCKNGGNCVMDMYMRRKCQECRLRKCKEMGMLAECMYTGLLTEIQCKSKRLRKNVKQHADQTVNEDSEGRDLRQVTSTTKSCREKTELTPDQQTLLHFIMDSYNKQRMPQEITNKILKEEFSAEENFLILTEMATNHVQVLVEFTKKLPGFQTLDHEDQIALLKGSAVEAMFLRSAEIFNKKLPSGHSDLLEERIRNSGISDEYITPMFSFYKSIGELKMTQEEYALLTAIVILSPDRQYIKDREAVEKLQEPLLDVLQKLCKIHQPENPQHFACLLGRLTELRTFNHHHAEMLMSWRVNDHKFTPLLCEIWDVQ
The data set is described as follows: FXR engagement markers (C4, FGF19) in HBV patients. Format: in vivo. As to conditions: all EYP001 doses; data not shown.
Description: as §1

The conditions of data set [1]: human, in vivo, 4 weeks. The method, then:
Therefore, in a particular aspect, EYP001 is administered once a day.

For another data set, the system named is HBV. As to conditions: chronic hepatitis B patients; Erken et al 2018; cited from earlier work.
The mark [2] stands for this setting: EYP001a 1 × 100 mg/day monotherapy, day 29.
[3] abbreviates: EYP001a 1 × 200 mg/day monotherapy, day 29.
[4] abbreviates: EYP001a 1 × 400 mg/day monotherapy, day 29.
Where [5] appears, read: EYP001a 2 × 200 mg/day monotherapy, day 29.
The mark [6] stands for this setting: ETV open-label 0.5 mg/day, end of treatment day 29.

Here are results for two compounds from patent US20220313690A1, “SYNERGISTIC EFFECT OF EYP001 AND IFN FOR THE TREATMENT OF HBV INFECTION” (ENYO PHARMA, priority 2019, published 2022).

For `O=C(O)c1cc2c(Cl)c(N3CCN(S(=O)(=O)c4c(Cl)cccc4Cl)CC3)ccc2o1` [EYP001], the HBVpgRNA mean change in the data set on HBV pgRNA (setting [2]) is given as 0.5 Log10 Copies mL; in the data set on HBV pgRNA (setting [3]), 0.4 Log10 Copies mL; in the data set with HBV pgRNA (setting [4]), 0.2 Log10 Copies mL; in the data set on HBV pgRNA (setting [5]) it was −0.1 Log10 Copies mL. The HBcrAg mean change in the data set on HBcrAg (setting [2]) is −0.3 Log10 IU mL; in the data set on HBcrAg (setting [3]) it was 0.2 Log10 IU mL; with HBcrAg (setting [4]), 0.02 Log10 IU mL; in the data set on HBcrAg (setting [5]), 1.2 Log10 IU mL. Besides, the “mean HBsAg decrease” value with HBsAg is −0.1 log 10 IU/mL. In the data set on HBV replication, the “effect when used alone” value is reported as “do not show a significant effect”. In addition, at FXR, the “change in C4” value is on record as “decreases”. Further, the “change in FGF19” value on FXR is reported as “increases”. The “pruritus, once a day versus twice a day” value in data set [1] was “fewer pruritus occurs when EYP001 is administered once a day”. For the same compound, the HBV viral load result in the data set with HBV was “reduces HBV viral load”.
For `C=C1[C@H](CO)[C@@H](O)C[C@@H]1n1cnc2c(=O)[nH]c(N)nc21` [ETV, entecavir, reference compound], in the data set with HBV pgRNA (setting [6]), the HBVpgRNA mean change is listed as −0.3 Log10 Copies mL. For the same compound, the HBcrAg mean change in the data set with HBcrAg (setting [6]) came to 0.03 Log10 IU mL.
